Reference: patent US12116358B2, “Substituted indoles and methods of use thereof” (EPIZYME, INC., priority 2018, dated 2024)
Like-named read-outs stand apart in the source and are kept apart here.

What was measured:
[1] = target: T1, SETD2(1434-1711) (Homo sapiens, UniProt Q9BYW2); test: SETD2 (1434-1711) assay; format: biochemical; conditions: read-out: SETD2 (1434-1711)
T1 construct: SETD2 (1434-1711) Assay; catalogue N/A
T1 sequence (Q9BYW2 1434-1711): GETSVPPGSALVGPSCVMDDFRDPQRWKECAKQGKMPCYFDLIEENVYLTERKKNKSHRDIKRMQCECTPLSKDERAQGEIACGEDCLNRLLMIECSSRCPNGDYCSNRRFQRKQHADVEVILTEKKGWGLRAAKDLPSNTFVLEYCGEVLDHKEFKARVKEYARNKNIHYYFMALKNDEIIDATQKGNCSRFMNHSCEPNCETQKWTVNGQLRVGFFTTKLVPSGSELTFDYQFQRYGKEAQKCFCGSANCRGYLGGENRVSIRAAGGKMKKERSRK

[2] = tested on: H3K36me3 in A549 cells; test: In-Cell Western (ICW) assay of SETD2 inhibitors (A549 assay); format: cell-based, human; conditions: A549 cells, read-out: SETD2 A549
In short: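 H3K36me3 In-Cell Western: cells exposed to compound for 3 days at 4,000 cells/well, 37° C. DRAQ5 (1:1000) marked cell number, with 700/800-channel Licor read-out.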

Compound	IC50 [1]	IC50 [2]	IC50 ([2]; Homo sapiens)
Cc1ccc(F)c2cc(C(=O)N[C@@H]3CCC[C@H](N4CCC5(CC4)CNC(=O)N5)C3)[nH]c12 [compound 940]	20 nM	–	> 2000 nM
Cc1ccc(F)c2cc(C(=O)NC3CCCC(N4CCC(=O)N(C)CC4)C3)[nH]c12 (centres unmarked) [compound 944]	30 nM	100 nM	–
Cc1ccc(F)c2cc(C(=O)NC3CCCC(N4CCC(N(C)C(=O)C5COC5)C4)C3)[nH]c12 (centres unmarked) [compound 947]	5500 nM	> 2000 nM	–
CCNC(=O)N1CCN(C2CCCC(NC(=O)c3cc4c(F)ccc(C)c4[nH]3)C2)CC1 (centres unmarked) [compound 948]	10 nM	100 nM	–
CC(=O)N1CC2CCC(C1)N2C1CCCC(NC(=O)c2cc3c(F)ccc(C)c3[nH]2)C1 (centres unmarked) [compound 952]	40 nM	400 nM	–
CC(=O)N1CC2CCC(C1)N2[C@@H]1CCC[C@@H](NC(=O)c2cc3c(F)ccc(C)c3[nH]2)C1 [compound 953]	3000 nM	–	> 2000 nM
Cc1ccc(F)c2cc(C(=O)NC3CCCC(c4nnc(CN(C)C)o4)C3)[nH]c12 (centres unmarked) [compound 955]	200 nM	800 nM	–
Cc1ccc(F)c2cc(C(=O)NC3CCCC(N4CCNCC4)C3)[nH]c12 (centres unmarked) [compound 956]	100 nM	700 nM	–
Cc1ccc(F)c2cc(C(=O)NC3CCCC(N4CCC(N5CCOC5=O)C4)C3)[nH]c12 (centres unmarked) [compound 959]	2300 nM	> 2000 nM	–
CC(=O)N(C)C1CN(C2CCCC(NC(=O)c3cc4c(F)ccc(C)c4[nH]3)C2)C1 (centres unmarked) [compound 960]	20 nM	> 2000 nM	–
CC(=O)N1CC2CCC1CN2C1CCCC(NC(=O)c2cc3c(F)ccc(C)c3[nH]2)C1 (centres unmarked) [compound 961]	30 nM	400 nM	–
CC(=O)N1CC2CCC1CN2C1CCCC(NC(=O)c2cc3c(F)ccc(C)c3[nH]2)C1 (centres unmarked) [compound 962]	800 nM	> 2000 nM	–
Cc1ccc(F)c2cc(C(=O)NC3CCCC(N4CCC5(CCC(=O)N5CC(F)(F)F)CC4)C3)[nH]c12 (centres unmarked) [compound 966]	600 nM	> 2000 nM	–
CC(=O)N1CCN(C2CCCC(NC(=O)c3cc4c(F)ccc(C)c4[nH]3)C2)CC1C (centres unmarked) [compound 968]	1900 nM	> 2000 nM	–
Cc1ccc(F)c2cc(C(=O)NC3CCCC(N4CCC(N(C)C(=O)C(C)C)C4)C3)[nH]c12 (centres unmarked) [compound 969]	4 nM	100 nM	–
Cc1ccc(F)c2cc(C(=O)NC3CCCC(N4CCC(N(C)C(=O)C(C)C)C4)C3)[nH]c12 (centres unmarked) [compound 970]	5000 nM	> 2000 nM	–

Compound	IC50 [1]	IC50 [2]	IC50 ([2]; Homo sapiens)
Cc1ccc(F)c2cc(C(=O)NC3CCCC(N4CCC(N(C)C(=O)C5CC5)C4)C3)[nH]c12 (centres unmarked) [compound 971]	10 nM	100 nM	–
Cc1ccc(F)c2cc(C(=O)NC3CCCC(N4CCC(N(C)C(=O)C5CC5)C4)C3)[nH]c12 (centres unmarked) [compound 972]	4900 nM	> 2000 nM	–
Cc1nnc(C2CCCC(NC(=O)c3cc4c(F)ccc(C)c4[nH]3)C2)o1 (centres unmarked) [compound 975]	100 nM	400 nM	–
Cc1ccc(F)c2cc(C(=O)NC3CCCC(N4CCN(C5CC5)C(=O)C4)C3)[nH]c12 (centres unmarked) [compound 977]	20 nM	200 nM	–
CC(=O)N1CCCN([C@@H]2CCC[C@@H](NC(=O)c3cc4c(F)ccc(C)c4[nH]3)C2)CC1 [compound 980]	900 nM	–	> 2000 nM
Cc1ccc(F)c2cc(C(=O)NC3CCCC(N4CCCN(S(C)(=O)=O)CC4)C3)[nH]c12 (centres unmarked) [compound 981]	30 nM	600 nM	–
Cc1ccc(F)c2cc(C(=O)NC3CCCC(N4CCC(N(C)C(=O)CO)C4)C3)[nH]c12 (centres unmarked) [compound 983]	20 nM	100 nM	–
CC(=O)N1CCN(C2COCC(NC(=O)c3cc4c(F)ccc(C)c4[nH]3)C2)CC1 (centres unmarked) [compound 986]	60 nM	200 nM	–
CC(=O)N1CCN(C2COCC(NC(=O)c3cc4c(F)ccc(C)c4[nH]3)C2)CC1 (centres unmarked) [compound 988]	4100 nM	> 2000 nM	–
Cc1ccc(F)c2cc(C(=O)NC3CCCC(N4CCn5c(nnc5C(F)(F)F)C4)C3)[nH]c12 (centres unmarked) [compound 989]	100 nM	800 nM	–
Cc1ccc(F)c2cc(C(=O)N[C@@H]3CCC[C@@H](N4CCn5c(nnc5C(F)(F)F)C4)C3)[nH]c12 [compound 990]	3200 nM	–	> 2000 nM
Cc1ccc(F)c2cc(C(=O)N[C@@H]3CCC[C@H](N4CCn5cncc5C4)C3)[nH]c12 [compound 991]	60 nM	–	300 nM
Cc1ccc(F)c2cc(C(=O)N[C@@H]3CCC[C@@H](N4CCn5c(cnc5C(F)(F)F)C4)C3)[nH]c12 [compound 994]	1800 nM	–	> 2000 nM
Cc1ccc(F)c2cc(C(=O)NC3CCCC(N4CCN(C(=O)OC(C)C)CC4)C3)[nH]c12 (centres unmarked) [compound 997]	10 nM	80 nM	–
Cc1ccc(F)c2cc(C(=O)NC3CCCC(N4CCN(C(=O)OC(C)C)CC4)C3)[nH]c12 (centres unmarked) [compound 998]	1500 nM	> 2000 nM	–

Results, then the molecule that gave them:

IC50 [1]	IC50 [2]	IC50 ([2]; Homo sapiens)	Compound
6800 nM	> 2000 nM	–	CC(=O)N1CC2CC1CN2C1CCCC(NC(=O)c2cc3c(F)ccc(C)c3[nH]2)C1 (centres unmarked) [compound 937]
30 nM	–	500 nM	Cc1ccc(F)c2cc(C(=O)N[C@@H]3CCC[C@H](N4CCC5(CCC(=O)N5)CC4)C3)[nH]c12 [compound 938]
500 nM	–	> 2000 nM	Cc1ccc(F)c2cc(C(=O)N[C@@H]3CCC[C@@H](N4CCC5(CCC(=O)N5)CC4)C3)[nH]c12 [compound 939]
1300 nM	–	> 2000 nM	Cc1ccc(F)c2cc(C(=O)N[C@@H]3CCC[C@@H](N4CCC5(CC4)CNC(=O)N5)C3)[nH]c12 [compound 941]
100 nM	> 2000 nM	–	Cc1ccc(F)c2cc(C(=O)N[C@@H]3CCC[C@@H](N4CCC(=O)N(C)CC4)C3)[nH]c12 [compound 945]
20 nM	100 nM	–	Cc1ccc(F)c2cc(C(=O)NC3CCCC(N4CCC(N(C)C(=O)C5COC5)C4)C3)[nH]c12 (centres unmarked) [compound 946]
700 nM	> 2000 nM	–	CCNC(=O)N1CCN(C2CCCC(NC(=O)c3cc4c(F)ccc(C)c4[nH]3)C2)CC1 (centres unmarked) [compound 949]
400 nM	> 2000 nM	–	CC(=O)N1CCC12CN(C1CCCC(NC(=O)c3cc4c(F)ccc(C)c4[nH]3)C1)C2 (centres unmarked) [compound 950]
7000 nM	> 2000 nM	–	CC(=O)N1CCC12CN(C1CCCC(NC(=O)c3cc4c(F)ccc(C)c4[nH]3)C1)C2 (centres unmarked) [compound 951]
40 nM	200 nM	–	Cc1ccc(F)c2cc(C(=O)NC3CCCC(N4CCC(N5CCOC5=O)C4)C3)[nH]c12 (centres unmarked) [compound 958]
20 nM	600 nM	–	Cc1ccc(F)c2cc(C(=O)NC3CCCC(N4CCC5(CC4)COC(=O)N5)C3)[nH]c12 (centres unmarked) [compound 963]
500 nM	> 2000 nM	–	Cc1ccc(F)c2cc(C(=O)NC3CCCC(N4CCC5(CC4)COC(=O)N5)C3)[nH]c12 (centres unmarked) [compound 964]
20 nM	200 nM	–	Cc1ccc(F)c2cc(C(=O)NC3CCCC(N4CCC5(CCC(=O)N5CC(F)(F)F)CC4)C3)[nH]c12 (centres unmarked) [compound 965]
20 nM	100 nM	–	CC(=O)N1CCN(C2CCCC(NC(=O)c3cc4c(F)ccc(C)c4[nH]3)C2)CC1C (centres unmarked) [compound 967]
40 nM	200 nM	–	Cc1ccc(F)c2cc(C(=O)NC3CCCC(N4CCN(C5CCOC5)C(=O)C4)C3)[nH]c12 (centres unmarked) [compound 973]
2600 nM	> 2000 nM	–	Cc1ccc(F)c2cc(C(=O)NC3CCCC(N4CCN(C5CCOC5)C(=O)C4)C3)[nH]c12 (centres unmarked) [compound 974]
6600 nM	> 2000 nM	–	Cc1nnc(C2CCCC(NC(=O)c3cc4c(F)ccc(C)c4[nH]3)C2)o1 (centres unmarked) [compound 976]
2300 nM	> 2000 nM	–	Cc1ccc(F)c2cc(C(=O)NC3CCCC(N4CCN(C5CC5)C(=O)C4)C3)[nH]c12 (centres unmarked) [compound 978]
60 nM	500 nM	–	CC(=O)N1CCCN(C2CCCC(NC(=O)c3cc4c(F)ccc(C)c4[nH]3)C2)CC1 (centres unmarked) [compound 979]
1000 nM	> 2000 nM	–	Cc1ccc(F)c2cc(C(=O)NC3CCCC(N4CCCN(S(C)(=O)=O)CC4)C3)[nH]c12 (centres unmarked) [compound 982]
5300 nM	> 2000 nM	–	Cc1ccc(F)c2cc(C(=O)NC3CCCC(N4CCC(N(C)C(=O)CO)C4)C3)[nH]c12 (centres unmarked) [compound 984]
6600 nM	> 2000 nM	–	CC(=O)N1CCN(C2COCC(NC(=O)c3cc4c(F)ccc(C)c4[nH]3)C2)CC1 (centres unmarked) [compound 985]
> 10000 nM	> 2000 nM	–	CC(=O)N1CCN(C2COCC(NC(=O)c3cc4c(F)ccc(C)c4[nH]3)C2)CC1 (centres unmarked) [compound 987]
1900 nM	–	> 2000 nM	Cc1ccc(F)c2cc(C(=O)N[C@@H]3CCC[C@@H](N4CCn5cncc5C4)C3)[nH]c12 [compound 992]
40 nM	–	200 nM	Cc1ccc(F)c2cc(C(=O)N[C@@H]3CCC[C@H](N4CCn5c(cnc5C(F)(F)F)C4)C3)[nH]c12 [compound 993]
8 nM	30 nM	–	Cc1ccc(F)c2cc(C(=O)NC3CCCC(N4CCC(N(C)C(=O)CO)C4)C3)[nH]c12 (centres unmarked) [compound 995]
800 nM	> 2000 nM	–	Cc1ccc(F)c2cc(C(=O)NC3CCCC(N4CCC(N(C)C(=O)CO)C4)C3)[nH]c12 (centres unmarked) [compound 996]
